From paper PMC1968247 (British Journal of Cancer, 1993)
Read-outs that look alike come from different tables or passages of the source.

Columns and labels:
[1] = test system: MAC 15A ascites tumour; assay: Anti-tumour activity against MAC 15A (median survival time); assay type: in vivo, NMRI mice; details: 30 mg kg-1 ip
Description: (§1) Br. J. Cancer (1993), 67, 441 446 t? […] Bibby Clinical Oncology Unit, University of Bradford, West Yorkshire, BD7 JDP, UK. […] In vivo anti-tumour activity was examined against three transplantable adenocarcinomas of the mouse colon and in vivo bone marrow toxicity was assessed using a spleen colony forming unit assay. The pharmacokinetic behaviour of the drug in vivo and drug stability in vitro was analysed by gas chromatography with electron capture detection. […] Clinical responses to cytotoxic agents have been largely restricted to the haematological malignancies while the majority of human solid tumours have remained refractory to chemotherapy (Marsoni et al., 1987). […] However, their clinical usefulness has been limited by non-selective host toxicity, particularly myelosuppres- sion. The chloroethylnitrosoureas decompose spontaneously in aqueous solution to generate reactive intermediates that are capable of alkylating and carbamoylating nucleophilic targets (Cheng et al., 1972). Alkylation reactions consist of chloroethylations and hydroxyethylations of DNA (Tong et al., 1982). Chloroethylation of 06-guanine with subsequent cross-link formation is considered to be the most important cytotoxic reaction (Lown et al., 1978) while hydroxyethyla- tion reactions are thought to be responsible for their mutagenic and carcinogenic effects (Pelfrene et al., 1976; Swenson et al., 1979). […] In the search for other types of compound that would chloroethylate DNA, a series of 2-haloethylsulphonates was synthesised (Shealy et al., 1983). […] Recently, the NCI has introduced a new disease-orientated screening programme based on the assessment of the in vitro cytotoxicity of a panel of cell lines representing the common clinical forms of human cancers using a colorimetric assay (Boyd, 1989). […] One reason for this discrepancy is that the in vitro tests ignore the potential role played by the pharmacokinetic behaviour and bioavailability of a drug in determining tumour responses in vivo. […] It has been used extensively as part of the pre-clinical evaluation of new anti-cancer agents within the Screening and Pharmacology Group of the EORTC (Bibby et al., 1988b). The feasibility of performing minimal toxicity studies in conjunction with anti-tumour studies has been described (Bibby et al., 1988b). […] Correspondence: A.M. Matthew. Received 6 December 1991; and in revised form 13 October 1992. Br. J. Cancer (1993), 67, 441-446 '?" Macmillan Press Ltd., 1993 442 A.M. MATIHEW et al. ethylating agents with improved therapeutic indices. The assessment of stem cell survival has been recommended to study irreversible cytotoxic bone marrow injury (Schofield, 1986) and this can be performed readily in mice using a spleen colony forming unit assay. […] In vitro activity was assessed against a panel of established murine and human tumour cell lines while in vivo anti-tumour responses were evaluated against an ascitic tumour, MAC 15A, and two solid subcutaneous (sc) tumours, MAC 13 and MAC 26. MAC 13 is relatively nitrosourea-sensitive due to a low level of the repair enzyme 06-alkylguanine-DNA alkyltransferase while MAC 26 is relatively nitrosourea-resistant due to a high repair enzyme level (Lunn et al., 1989). In vivo bone marrow toxicity and pharmacokinetic studies and in vitro drug stability studies were performed in conjunction with the anti-tumour studies. […] Chlorozotocin was dissolved in 10% dimethylsulphoxide (DMSO)/arachis oil. Drug solutions were prepared at an appropriate concentration for the desired in vivo dose to be administered in 0.1 ml per 10 g body weight by intra- peritoneal (ip) or intravenous (iv) injection and for the desired final concentration in vitro to be achieved upon a 1 in 10 dilution. […] Chemosensitivity testing In vitro chemosensitivity was assessed using a modified micro-tetrazolium (MTT) assay (Twenty- man & Luscombe, 1987).

[2] = test system: MAC 13 tumours; assay: Anti-tumour activity against MAC 13 (tumour weight); assay type: in vivo, NMRI mice; details: 30 mg kg-1 ip
Description: as §1

[3] = test system: MAC 26 tumours; details: for Survivors: MAC 26 bearers
Description: as §1

[4] = test system: bone marrow; details: 24 h
Description: as §1

[5] = Maximum tolerated dose, full dose range to the point of toxicity; details: ip, mice
Description: Br. J. Cancer (1993), 67, 441 446 t? […] Bibby Clinical Oncology Unit, University of Bradford, West Yorkshire, BD7 JDP, UK. […] In vivo anti-tumour activity was examined against three transplantable adenocarcinomas of the mouse colon and in vivo bone marrow toxicity was assessed using a spleen colony forming unit assay. The pharmacokinetic behaviour of the drug in vivo and drug stability in vitro was analysed by gas chromatography with electron capture detection. […] Clinical responses to cytotoxic agents have been largely restricted to the haematological malignancies while the majority of human solid tumours have remained refractory to chemotherapy (Marsoni et al., 1987). […] However, their clinical usefulness has been limited by non-selective host toxicity, particularly myelosuppres- sion. The chloroethylnitrosoureas decompose spontaneously in aqueous solution to generate reactive intermediates that are capable of alkylating and carbamoylating nucleophilic targets (Cheng et al., 1972). Alkylation reactions consist of chloroethylations and hydroxyethylations of DNA (Tong et al., 1982). Chloroethylation of 06-guanine with subsequent cross-link formation is considered to be the most important cytotoxic reaction (Lown et al., 1978) while hydroxyethyla- tion reactions are thought to be responsible for their mutagenic and carcinogenic effects (Pelfrene et al., 1976; Swenson et al., 1979). […] The assessment of stem cell survival has been recommended to study irreversible cytotoxic bone marrow injury (Schofield, 1986) and this can be performed readily in mice using a spleen colony forming unit assay. […] In vitro activity was assessed against a panel of established murine and human tumour cell lines while in vivo anti-tumour responses were evaluated against an ascitic tumour, MAC 15A, and two solid subcutaneous (sc) tumours, MAC 13 and MAC 26. […] Chemosensitivity testing In vitro chemosensitivity was assessed using a modified micro-tetrazolium (MTT) assay (Twenty- man & Luscombe, 1987).

With CN(C)S(=O)(=O)CCNC(=O)N(CCCl)N=O [TCNU, 1-(2-chloroethyl)-3-[2-(dimethylaminosulphonyl)ethyl]-I -nitro-sourea] the T/C% [1] was 200%, the “% Tumour weight inhibition” value [2] was 91.3% and the Tumour growth delay ([3]; MAC 26, 30 mg kg-1 ip) was 11.6 days. The Survivors ([3]; 30 mg kg-1 ip) was 10/10, the Survivors ([3]; 50 mg kg-1 ip) was 0/5 and the Survival fraction ([4]; 5 mg kg-1 ip) was 0.61. For the same molecule, the Survival fraction ([4]; 10 mg kg-1 ip) was 0.20, the Survival fraction ([4]; 30 mg kg-1 ip) was 0 and the No. colonies observed ([4]; 30 mg kg-1 ip, mean, SD, n = 6) was 0. For the same molecule, the Maximum tolerated dose [5] was 30 mg kg-'.
